Measurements published in patent US20180133203A1, “METHODS OF TREATING LIVER DISEASE” (Gilead Sciences, Inc., priority 2016, published 2018).

How the values were obtained:
CDHFD/NaNO2 rats [1] = test: Quantitative IHC of the myofibroblast marker desmin in liver, CDHFD/NaNO2 rat model of NASH; assay type: in vivo, male Wistar rats; conditions: for liver % desmin marker area: mean±SEM, vehicle-treated CDHFD/NaNO2 rats 10.3±0.8%, healthy control 0.7±0.1%; for reduction of liver desmin staining: vs vehicle-treated CDHFD/NaNO2 rats, Formula (I) 0.2% in diet, Formula (III) 30 mg/kg/day, week 4 to 14
Description: (§1) The following study was conducted to evaluate the efficacy of the combination of an ASK1 inhibitor and an FXR agonist in a rodent model of non-alcoholic steatohepatitis (NASH), relative to the efficacy of the individual agents alone in the model. NASH was induced in male Wistar rats by administration of a choline-deficient high fat diet (CDHFD) combined with the chronic administration of sodium nitrite (CDHFD/NaNO2). The model capitalizes on the “two hit theory” of NASH by inducing both metabolic dysfunction (CDHFD) and oxidative stress (NaNO2) in the liver to result in hepatic fibrosis that is similar in character and severity to that seen in patients with advanced NASH. Rats were fed CDHFD for a total of 14 weeks and were administered NaNO2 from week 4 to 14. The compound of Formula (III) (given as admixture in diet, adjusted to deliver 30 mg/kg/day), compound of Formula (I) (administered as a 0.2% admixture in diet), or vehicle was administered from week 4 to 14. The following endpoints were assessed at the completion of the 14 week study: i) liver fibrosis measured by liver hydroxyproline (OHP) content and by quantitative morphometric analysis of collagen content by Picosirius red (PSR) staining; ii) myofibroblast activation in liver sections as measured by quantitative IHC of the myofibroblast marker desmin; and, iii) Col1a1 and Timp1 in liver tissue measured by RT-PCR. All CDHFD/NaNO2 animals were fed a choline-deficient high-fat diet (CDHFD; Research Diets, Inc) for 14 weeks and were also administered intraperitoneal injections of NaNO2 (3 injections per week; Sigma Aldrich #31443) at a dose of 25 mg/kg (from week 4 to 10) and at a dose of 12.5 mg/kg (from week 10 to 14). Formula (III) (given as admixture in the CDHFD diet, adjusted to deliver 30 mg/kg/day, n=10 animals per group) and Formula (I) (given as a 0.2% admixture in the CDHFD diet, n=10 per group) were administered drug from week 4 to 14. Vehicle control animals were administered the same CDHFD diet with no drug added (Vehicle; n=10 animals per group) from week 4 to 14. […] On the final day of study, rats received a single oral gavage of either Formula (I) or Formula (III) at a dose of 30 mg/kg, four hours before animals were euthanized and tissues were collected for analyses. All endpoints were assessed at the completion of the 14 week study protocol. Whole slide images of Picrosirius Red (PSR) and Desmin stained slides were captured using a Leica AT2 scanner at 40× magnification. […] Quantitative image analysis was performed on the whole slide-scan images using Definiens Tissue Studio Architect XD (Definiens Inc.) to determine the extent and intensity of PSR and Desmin. […] The total PSR-stained area and Desmin IHC staining were measured and expressed as a percentage of total liver area stained.

FFD mice = test: Hepatic steatosis (% vacuolation area, H&E morphometry) in fast food diet (FFD) mouse model of NASH; assay type: in vivo, male C57BL/6 mice; conditions: Formula (I) 0.15% admixture in diet, Formula (III) 10 mg/kg PO QD, months 7-10
Description: The following study was conducted to evaluate the efficacy of the combination of an ASK1 inhibitor and an FXR agonist in a mouse model of non-alcoholic steatohepatitis (NASH), relative to the efficacy of the individual agents alone in the model. NASH was induced in male C57BL/6 mice by chronic administration of a “fast food” diet (FFD) high in saturated fats, cholesterol and sugars for a total of 10 months, whereas lean control animals were maintained on a normal chow diet. A NASH phenotype was established in FFD mice compared to control mice by 7 months, and was characterized by obesity, hypercholesterolemia, and AST/ALT elevation; and by histological features of NASH such as hepatocellular macrovesicular steatosis and ballooning degeneration. […] Endpoint analyses included morphometric quantification of liver steatosis (% of steatotic area), liver cholesterol content, serum ALT/AST levels, serum bile acid levels, and nanostring evaluation of gene expression. […] Extent of steatosis was determined on H&E stained tissue sections using the Definiens Developer software package. […] The number and size of these areas were enumerated and the total steatotic area was expressed as a percentage of total liver tissue cross-sectional area. […]

CDHFD/NaNO2 rats [2] = test: Quantitative morphometric analysis of liver collagen by Picrosirius Red (PSR) staining in CDHFD/NaNO2 rat model of NASH; assay type: in vivo, male Wistar rats; conditions: week 4 to 14; for PSR area (% area of liver): mean±SEM, vehicle-treated CDHFD/NaNO2 rats 8.5±0.6%, healthy control 1.7±0.3%, Formula (I) 0.2% in diet, Formula (III) 30 mg/kg/day; for reduction of liver collagen (PSR): vs vehicle-treated CDHFD/NaNO2 rats, Formula (I) 0.2% admixture in diet, Formula (III) 30 mg/kg/day in diet
Description: as §1

SMILES | liver % desmin marker area (CDHFD/NaNO2 rats [1]) | reduction of liver desmin staining (CDHFD/NaNO2 rats [1]) | reduction in steatosis (H&E stained liver sections) (FFD mice) | PSR area (% area of liver) (CDHFD/NaNO2 rats [2]) | reduction of liver collagen (PSR) (CDHFD/NaNO2 rats [2])
O=C(O)c1ccnc(N2CC(O)(c3ccc(OCc4c(-c5c(Cl)cccc5Cl)noc4C4CC4)cc3Cl)C2)c1 [Formula (III)] | 5.9±0.7% | 43% | 27% | 6.6±0.9% | 22%
O=C(Nc1cccc(-c2nncn2C2CC2)c1)c1cc(-n2cnc(C3CC3)c2)ccn1 [Formula (I)] | 5.6±0.7% | 46% | 39% | 6.2±1.1% | 27%
